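Growth conditions: 96-well plates. Treatment: test compound, 48 hours, 5 concentrations. Analysis: linear interpolation between bracketing concentrations; unreached endpoints set to highest concentration. At the GI50, growth is halved. TGI: concentration producing complete growth inhibition.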 Some results are limits rather than exact numbers.

We go through 16 molecules from PubChem BioAssay (NCI).

Among the test systems are 786-0 renal; MOLT-4 leukemia; NCI-H460 lung; OVCAR-8 ovarian; SF-268 CNS; UACC-62 melanoma.
Common to all, as to assay: NCI tumour cell line growth inhibition, 48 h

In the case of `CC1(C)C=C(N2CCN(C3=CC(C)(C)NC(C)(C)C3)CC2)CC(C)(C)N1`, the TGI in the test on 786-0 renal, in the test with MOLT-4 leukemia, in the test with NCI-H460 lung, in the test with OVCAR-8 ovarian, in the test on SF-268 CNS and with UACC-62 melanoma was greater than 100 µM each time.
On to `CC(O)(c1ccc(OCCC[N+](C)(C)C)cc1)C(C)(O)c1ccc(OCCC[N+](C)(C)C)cc1` (stereo not given), for which the TGI with 786-0 renal, with NCI-H460 lung, in the test on OVCAR-8 ovarian, in the test on SF-268 CNS and with UACC-62 melanoma was greater than 100 µM throughout.
Regarding `CSC(=NC(=O)c1ccccc1)SCCSC(=NC(=O)c1ccccc1)SC`, the TGI with 786-0 renal, in the test on MOLT-4 leukemia, with NCI-H460 lung, in the test on OVCAR-8 ovarian, in the test on SF-268 CNS and in the test on UACC-62 melanoma was greater than 100 µM throughout.
Turning to `CN(CCc1ccccn1)/[N+]([O-])=N/O` (tested in a mixture with another compound), the TGI in the test with 786-0 renal, in the test on MOLT-4 leukemia, in the test with NCI-H460 lung, in the test on OVCAR-8 ovarian, with SF-268 CNS and in the test with UACC-62 melanoma was greater than 100 µM in each case.
Turning to `CCCCCCCCC1C(C)c2c([nH]c3ccccc23)C2C(=O)N(c3ccccc3)C(=O)C21` (stereo not given), the TGI in the test on 786-0 renal was 26.5 µM; in the test with MOLT-4 leukemia, 7.18 µM; in the test with NCI-H460 lung it was 12.9 µM; in the test on OVCAR-8 ovarian, 28.4 µM; with UACC-62 melanoma it was 36.4 µM.
As to `COC(=O)/C=C(C)/C=C/c1c(C)c(C(C)=O)c(C)n1C`, the TGI with 786-0 renal, in the test with MOLT-4 leukemia, in the test with OVCAR-8 ovarian, in the test with SF-268 CNS and with UACC-62 melanoma was greater than 100 µM each time.
For `CCc1cc2c(Nc3ccccc3)c3c(nc2s1)CCCC3`, the TGI in the test with 786-0 renal, in the test with MOLT-4 leukemia, in the test with NCI-H460 lung, in the test on OVCAR-8 ovarian, in the test on SF-268 CNS and in the test on UACC-62 melanoma was greater than 100 µM in each case.
Turning to `CC(/C=C1\CCC(CN(C)C)C1=O)c1cccc(Br)c1` (stereo not given), the TGI in the test on 786-0 renal is 12.3 µM; in the test with MOLT-4 leukemia it was 13.3 µM; in the test on NCI-H460 lung it was greater than 70.2 µM; in the test with OVCAR-8 ovarian it was 36.8 µM; in the test on SF-268 CNS it was 43.7 µM; with UACC-62 melanoma, 32.4 µM.
Take `CCCc1nn(C)c(CCC(=O)N(Cc2ccccc2)Cc2ccccc2)c1CC`: the TGI in the test on 786-0 renal, in the test with NCI-H460 lung, with OVCAR-8 ovarian, with SF-268 CNS and in the test on UACC-62 melanoma was greater than 100 µM in each case.
In the case of `CCC1=CCC(P(=O)(c2ccccc2)c2ccccc2)CC1C` (stereo not given), the TGI in the test with 786-0 renal is greater than 100 µM; with MOLT-4 leukemia, 46.2 µM; in the test on NCI-H460 lung, greater than 100 µM; in the test on OVCAR-8 ovarian, greater than 100 µM; in the test with SF-268 CNS, greater than 100 µM; in the test with UACC-62 melanoma, greater than 100 µM.
On to `Cc1ccc(-c2nc3ccccc3c(=O)n2NC2OC(CO)C(O)C(O)C2O)cc1` (stereo not given), for which the TGI in the test with 786-0 renal, in the test on MOLT-4 leukemia, in the test with NCI-H460 lung, with OVCAR-8 ovarian, in the test with SF-268 CNS and in the test with UACC-62 melanoma was greater than 100 µM throughout.
As for `CC[C@@]1(O)C(=O)OCc2c1cc1n(c2=O)Cc2cc3cccc(N)c3nc2-1`, the GI50 was 2.38 µM in the test on 786-0 renal; 2.35 µM in the test with MOLT-4 leukemia; 1.38 µM in the test on NCI-H460 lung; 12.1 µM in the test on OVCAR-8 ovarian; 2.51 µM with SF-268 CNS; 4.74 µM with UACC-62 melanoma. The TGI is 8.72 µM with 786-0 renal; greater than 100 µM in the test on MOLT-4 leukemia; 11.2 µM in the test with NCI-H460 lung; greater than 100 µM with OVCAR-8 ovarian; greater than 100 µM with SF-268 CNS; 31.7 µM in the test with UACC-62 melanoma.
Turning to `Cc1cc(=O)n2c(cc3cccccc32)n1`, the TGI in the test on 786-0 renal, in the test on MOLT-4 leukemia, in the test with NCI-H460 lung, in the test with OVCAR-8 ovarian, in the test on SF-268 CNS and in the test with UACC-62 melanoma was greater than 100 µM in each case.
As to `CC(=O)OC(C)(C)C[N+](=O)[O-]`, the TGI in the test on 786-0 renal, in the test on MOLT-4 leukemia, in the test on NCI-H460 lung, in the test on OVCAR-8 ovarian and with SF-268 CNS was greater than 100 µM each time.
On to `c1ccc(N2CCN(CCCN3CCc4c([nH]c5ccccc45)C3c3cccnc3)CC2)cc1` (stereo not given), for which the TGI with 786-0 renal, in the test with MOLT-4 leukemia, in the test with NCI-H460 lung, with OVCAR-8 ovarian and in the test with UACC-62 melanoma was greater than 100 µM in each case.
Take `CCCCCCCCCCCCCP(=O)(OC)OC`: the TGI with 786-0 renal was determined as 33.7 µM; in the test on MOLT-4 leukemia it was 36.5 µM; in the test on NCI-H460 lung it was 31.3 µM; with OVCAR-8 ovarian, 31.9 µM; in the test with UACC-62 melanoma it was 32.2 µM.
